Test systems include CCRF-CEM leukemia; DLD-1 colon; HCT-15 colon; HOP-18 NSCLC; HOP-62 NSCLC; KM20L2 colon; SN12C renal; U251 CNS; SK-MEL-2 melanoma.
Common to all, as to experiment: NCI tumour cell line growth inhibition, 48 h

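Growth conditions: 96-well plates. Treatment: test compound, 48 hours, 5 concentrations. Analysis: linear interpolation between bracketing concentrations; unreached endpoints set to highest concentration. TGI is the concentration that stops growth completely.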 Some results are limits rather than exact numbers.

`CC(C)CC1=[N+]=C(NC#N)N=C(CCC(=O)Nc2ccccc2[N+](=O)[O-])C1`: the TGI in the test on CCRF-CEM leukemia, with DLD-1 colon, with HCT-15 colon, in the test with HOP-18 NSCLC, in the test on HOP-62 NSCLC and in the test with KM20L2 colon was greater than 100 µM in each case. Further, the TGI in the test on SN12C renal and with U251 CNS was greater than 100 µM throughout.
For `Cc1cccc(C(C)C)c1NC(=O)C(=O)CC(=O)c1c(C)n([O-])c2ccccc2[n+]1=O`, the TGI is 99.7 µM with CCRF-CEM leukemia; 62.2 µM in the test with HCT-15 colon; greater than 100 µM with HOP-18 NSCLC; greater than 100 µM in the test with HOP-62 NSCLC; greater than 100 µM with KM20L2 colon; 98.1 µM in the test with SK-MEL-2 melanoma. Also, the TGI with SN12C renal was 96.7 µM; in the test on U251 CNS it was 95.9 µM.
Take `CC(=O)Oc1ccc(O)c(O)c1C/C=C(\C)CC/C=C(\C)CC/C=C(\C)CCC=C(C)C`: the TGI was 1.41 µM in the test on DLD-1 colon; 0.879 µM with HOP-18 NSCLC; 2.81 µM with HOP-62 NSCLC; 3.74 µM in the test with KM20L2 colon; 2.9 µM in the test on SK-MEL-2 melanoma; 0.868 µM in the test on SN12C renal. The TGI in the test with U251 CNS stood at 1.28 µM.
Regarding `CSc1nc2c(nc(N)n2C2OCC(O)C(O)C2O)c(=O)n1C` (configuration not stated), the TGI in the test with CCRF-CEM leukemia, in the test with DLD-1 colon, in the test on HOP-18 NSCLC, with HOP-62 NSCLC, with KM20L2 colon and in the test on SN12C renal was greater than 100 µM throughout. The molecule further came in with a TGI in the test on U251 CNS greater than 100 µM.
`Cn1nc(-c2ccccc2)c(C(=O)/C=C/c2ccccc2)c(N2CCOCC2)c1=O`: the TGI in the test on CCRF-CEM leukemia was 57.2 µM; with DLD-1 colon it was greater than 100 µM; in the test with HCT-15 colon, 57 µM; in the test with HOP-18 NSCLC it was 89.7 µM; with HOP-62 NSCLC, greater than 100 µM; with KM20L2 colon, 42.9 µM. Moreover, the TGI was found to be 59.2 µM in the test on SN12C renal and 29.4 µM in the test on U251 CNS.
On to `CCOC(=O)NN1C(=O)C(=P(c2ccccc2)(c2ccccc2)c2ccccc2)C(C(=O)OCC)=C1C`, for which the TGI in the test on CCRF-CEM leukemia, in the test on DLD-1 colon, with HCT-15 colon, in the test with HOP-62 NSCLC, with KM20L2 colon and in the test on SK-MEL-2 melanoma was greater than 100 µM throughout. The TGI in the test on SN12C renal and with U251 CNS was greater than 100 µM throughout.
Take `OCCCCCCOc1ccc(-c2cc(-c3ccccn3)nc(-c3ccccn3)c2)cc1`: the TGI with CCRF-CEM leukemia was 1.08 µM; with DLD-1 colon, 2.99 µM; in the test with HCT-15 colon, greater than 33.1 µM; in the test with HOP-18 NSCLC, 3.99 µM; with HOP-62 NSCLC it was 1.66 µM; with SK-MEL-2 melanoma, 1.13 µM. The TGI in the test on SN12C renal was determined as 3.02 µM; with U251 CNS, 1.6 µM.
As to `CC(=O)n1c2ccccc2c2nc3nc(Oc4ccc(C)cc4)c4ccccc4c3cc21`, the TGI with CCRF-CEM leukemia, with DLD-1 colon, in the test with HCT-15 colon, in the test with HOP-62 NSCLC, in the test with KM20L2 colon and in the test with SK-MEL-2 melanoma was greater than 100 µM each time. Moreover, the TGI in the test on SN12C renal and in the test with U251 CNS was greater than 100 µM each time.
On to `CN(C)CCCN1CCc2c([nH]c3ccccc23)C1c1cccnc1` (configuration not stated), for which the TGI in the test with CCRF-CEM leukemia, in the test with DLD-1 colon, with HCT-15 colon, in the test on HOP-62 NSCLC, in the test with KM20L2 colon and in the test with SK-MEL-2 melanoma was greater than 100 µM throughout. For the same molecule, the TGI in the test with SN12C renal and in the test on U251 CNS was greater than 100 µM throughout.
`COc1nc2nccc-2c2occn12`: the TGI with DLD-1 colon, with HCT-15 colon, in the test on HOP-18 NSCLC, in the test with HOP-62 NSCLC, in the test with KM20L2 colon and in the test on SK-MEL-2 melanoma was greater than 100 µM throughout. The TGI in the test on SN12C renal and in the test on U251 CNS was greater than 100 µM in each case.
Take `NNC(=O)CCC(=O)NC1C2CC3CC(C2)CC1C3` (configuration not stated): the TGI in the test with CCRF-CEM leukemia, with DLD-1 colon, in the test on HCT-15 colon, in the test on HOP-62 NSCLC, with KM20L2 colon and in the test with SK-MEL-2 melanoma was greater than 100 µM throughout. The TGI in the test with SN12C renal and in the test on U251 CNS was greater than 100 µM throughout.
Consider `O=c1cc(-c2ccccc2)c2cc3c(=O)ccoc3cc2o1`, for which the TGI in the test on CCRF-CEM leukemia, in the test with DLD-1 colon, with HCT-15 colon, in the test on HOP-62 NSCLC, with KM20L2 colon and in the test on SK-MEL-2 melanoma was greater than 100 µM in each case. Further, the TGI with SN12C renal and in the test with U251 CNS was greater than 100 µM throughout.
`CC(=O)c1cc([N+](=O)[O-])ccc1OCC(=O)O`: the TGI in the test with CCRF-CEM leukemia, in the test with DLD-1 colon, in the test with HCT-15 colon, in the test with HOP-62 NSCLC, in the test on KM20L2 colon and in the test on SK-MEL-2 melanoma was greater than 100 µM each time. The TGI with SN12C renal and with U251 CNS was greater than 100 µM in each case.
